Data on 21 molecules can be found in patent US10793575B2, “Oxoisoquinoline derivatives” (CARNA BIOSCIENCES, INC., priority 2016, dated 2020).

For one assay, the target named is dephosphorylated BTK (Homo sapiens (Human), UniProt Q06187). Put plainly: BTK Activity Inhibition Test (mobility shift assay). The format is biochemical. The conditions noted are these: 200 μM ATP, read-out: Inhibitory Activity on BTK. The procedure:
Dephosphorylated BTK was obtained by adding λ protein phosphatase (manufactured by New England BioLabs Inc., Code No. P0753S) and MnCl2 at 10 U/μg and 2 mM, respectively, to biotinylated BTK protein BTN-BTK (Manufactured by Carna Biosciences, Inc.) enzyme solution, reacting the mixture at 4° C. overnight, and removing of λ protein phosphatase by anti […]-tag antibody agarose gel chromatography, followed by buffer exchange using a 10DG Desalting Column.
The kinase activity was measured using QuickScout Screening Assist (trade mark) MSA (commercially available kit manufactured by Carna Biosciences, Inc.) by mobility shift assay (MSA) method. The substrate of the kinase reaction was an FITC-labeled SRCtide peptide included in the kit. An assay buffer [20 mM HEPES, 0.01% Triton X-100 (Trade mark), 2 mM dithiothreitol, pH 7.5] was used and adjusted at 4 μM substrate, 20 mM MgCl2 and 200 μm ATP to obtain a substrate mixture solution. The enzyme solution was also prepared by diluting the dephosphorylated BTK to 0.46 nM using the assay buffer. The 10 mM solution of the test compound in DMSO was further diluted with DMSO to 10 levels of the concentration (0.00003 mM, 0.0001 mM, 0.0003 mM, 0.001 mM, 0.003 mM, 0.01 mM, 0.03 mM, 0.1 mM, 0.3 mM, 1 mM), each of which was subjected to a 25-fold dilution with the assay buffer to obtain the drug solutions (4% DMSO solutions). 5 μL of the drug solution or a control solution (4% DMSO-assay buffer), 5 μL of the substrate mixture solution, and 10 μL of the enzyme solution were mixed in the wells of a polypropylene 384-well plate and allowed to react at room temperature for 2 hours, and then quenched by adding 60 μL of the termination buffer included in the kit. Subsequently, the quantities of the substrates (S) and the phosphorylated substrate (P) in the reaction solution were measured using LabChip EZ Reader II system (manufactured by Caliper Life Sciences) according to the protocol of the assay kit.
The heights of the peaks of the isolated substrate and the phosphorylated substrate were represented as S and P, respectively, and a blank which contained the assay buffer instead of the enzyme solution was also measured.
The inhibition rate (%) of the test compound was calculated according to the following equation; Inhibition rate (%)=(1−(C−A)/(B−A))×100 • wherein, A, B and C represent P/(P+S) of the blank well, P/(P+S) of the control well and P/(P+S) of the compound-containing well, respectively.
The IC50 value was calculated via a regression analysis of the inhibition rate (%) and the test compound concentration (logarithmic value).

In another assay the test system is OCI-Ly10 cells. Put plainly: Proliferation-Inhibitory Test Against Diffuse Large-Cell B-Cell Lymphoma OCI-Ly10 Strain. Particulars: Homo sapiens, 96 hours, alamarBlue. In kind it is cell-based. A digest of the protocol: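 Proliferation was read by alamarBlue after a 96-hour incubation. Final compound concentrations spanned 0.9 nM to 30000 nM with 0.3% DMSO. Cells were seeded at 20000 per well in IMDM containing 20% fetal bovine serum under 5% CO2.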

dephosphorylated BTK, sequence (Q06187 whole entry): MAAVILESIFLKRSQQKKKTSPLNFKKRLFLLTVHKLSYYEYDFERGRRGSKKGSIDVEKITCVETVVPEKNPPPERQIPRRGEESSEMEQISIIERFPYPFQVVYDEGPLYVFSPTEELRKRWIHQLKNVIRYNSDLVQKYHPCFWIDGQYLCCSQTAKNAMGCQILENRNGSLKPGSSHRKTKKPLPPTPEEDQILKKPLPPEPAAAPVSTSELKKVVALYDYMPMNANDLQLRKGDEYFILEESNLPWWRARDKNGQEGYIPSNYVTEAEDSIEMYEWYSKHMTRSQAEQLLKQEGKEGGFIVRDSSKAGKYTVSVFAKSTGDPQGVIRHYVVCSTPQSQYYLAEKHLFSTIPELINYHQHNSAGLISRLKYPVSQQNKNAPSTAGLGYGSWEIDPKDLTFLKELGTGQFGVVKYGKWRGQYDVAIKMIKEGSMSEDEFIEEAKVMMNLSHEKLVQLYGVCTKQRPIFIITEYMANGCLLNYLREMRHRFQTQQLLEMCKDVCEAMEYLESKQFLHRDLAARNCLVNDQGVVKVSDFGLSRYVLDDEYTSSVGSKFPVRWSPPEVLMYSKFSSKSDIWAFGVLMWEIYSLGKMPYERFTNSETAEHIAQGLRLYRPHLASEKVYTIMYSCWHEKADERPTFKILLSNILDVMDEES

As for `Cc1n[nH]c2nc(N)nc(-c3cccc(-n4ccc5cc(C6CC6)cc(F)c5c4=O)c3CO)c12` [Example 10, 2-[3-(6-amino-3-methyl-1H-pyrazolo[3,4-d]pyrimidin-4-yl)-2-(hydroxymethyl)phenyl]-6-cyclopropyl-8-fluoroisoquinolin-1(2H)-one], the IC50 at dephosphorylated BTK was less than 10 nM.

As to `Nc1nc(-c2cccc(-n3ccc4cc(C5CC5)cc(F)c4c3=O)c2CO)c2cc(-c3cccc(F)c3)[nH]c2n1` [Example 29, 2-{3-[2-amino-6-(3-fluorophenyl)-7H-pyrrolo[2,3-d]pyrimidin-4-yl]-2-(hydroxymethyl)phenyl}-6-cyclopropyl-8-fluoroisoquinolin-1(2H)-one], the figures for the IC50 on dephosphorylated BTK and in the assay on OCI-Ly10 cells were less than 10 nM and 332 nM, respectively. In the same order, the values of `Nc1nc(-c2cccc(-n3ccc4cc(C5CC5)cc(F)c4c3=O)c2CO)c2cc(-c3ccc(OC(F)(F)F)cc3)[nH]c2n1` [Example 38, 2-(3-{2-amino-6-[4-(trifluoromethoxy)phenyl]-7H-pyrrolo[2,3-d]pyrimidin-4-yl}-2-(hydroxymethyl)phenyl)-6-cyclopropyl-8-fluoroisoquinolin-1(2H)-one] are 10 to 100 nM and 366 nM.

As for `Nc1nc(-c2cccc(-n3ccc4cc(C5CC5)cc(F)c4c3=O)c2CO)c2cc(-c3ccncc3)[nH]c2n1` [Example 19, 2-{3-[2-amino-6-(pyridin-4-yl)-7H-pyrrolo[2,3-d]pyrimidin-4-yl]-2-(hydroxymethyl)phenyl}-6-cyclopropyl-8-fluoroisoquinolin-1(2H)-one], the IC50 on dephosphorylated BTK is less than 10 nM. Same read-out and setting: the result for `COc1cccc(-c2n[nH]c3nc(N)nc(-c4cccc(-n5ccc6cc(C7CC7)cc(F)c6c5=O)c4CO)c23)c1` [Example 22, 2-{3-[6-amino-3-(3-methoxyphenyl)-1H-pyrazolo[3,4-d]pyrimidin-4-yl]-2-(hydroxymethyl)phenyl}-6-cyclopropyl-8-fluoroisoquinolin-1(2H)-one] reads less than 10 nM. In the case of `COc1ccc(-c2n[nH]c3nc(N)nc(-c4cccc(-n5ccc6cc(C7CC7)cc(F)c6c5=O)c4CO)c23)cc1` [Example 20, 2-{3-[6-amino-3-(4-methoxyphenyl)-1H-pyrazolo[3,4-d]pyrimidin-4-yl]-2-(hydroxymethyl)phenyl}-6-cyclopropyl-8-fluoroisoquinolin-1(2H)-one], the IC50 on dephosphorylated BTK was less than 10 nM. Same read-out and setting: then `Nc1nc(-c2cccc(-n3ccc4cc(C5CC5)cc(F)c4c3=O)c2CO)c2cc(CO)[nH]c2n1` [Example 11, 2-{3-[2-amino-6-(hydroxymethyl)-7H-pyrrolo[2,3-d]pyrimidin-4-yl]-2-(hydroxymethyl)phenyl}-6-cyclopropyl-8-fluoroisoquinolin-1(2H)-one], with 10 to 100 nM. Consider `Nc1nc(-c2cccc(-n3ccc4cc(C5CC5)cc(F)c4c3=O)c2CO)c2cc(-c3ccccc3F)[nH]c2n1` [Example 33, 2-{3-[2-amino-6-(2-fluorophenyl)-7H-pyrrolo[2,3-d]pyrimidin-4-yl]-2-(hydroxymethyl)phenyl}-6-cyclopropyl-8-fluoroisoquinolin-1(2H)-one], for which the results for the IC50 at dephosphorylated BTK and in the assay on OCI-Ly10 cells were less than 10 nM and 197 nM, respectively. With `COc1ccccc1-c1nc2c(-c3cccc(-n4ccc5cc(C6CC6)cc(F)c5c4=O)c3CO)nc(N)nc2[nH]1` [Example 24, 2-{3-[2-amino-8-(2-methoxyphenyl)-9H-purin-6-yl]-2-(hydroxymethyl)phenyl}-6-cyclopropyl-8-fluoroisoquinolin-1(2H)-one], at dephosphorylated BTK, the IC50 was less than 10 nM. As for `Nc1nc(-c2cccc(-n3ccc4cc(C5CC5)cc(F)c4c3=O)c2CO)c2cc(-c3ccc(F)c(F)c3)[nH]c2n1` [Example 36, 2-{3-[2-amino-6-(3,4-difluorophenyl)-7H-pyrrolo[2,3-d]pyrimidin-4-yl]-2-(hydroxymethyl)phenyl}-6-cyclopropyl-8-fluoroisoquinolin-1(2H)-one], the values for the IC50 at dephosphorylated BTK and in the assay with OCI-Ly10 cells were less than 10 nM and 450 nM, respectively. For the molecule `Cc1cc2c(-c3cccc(-n4ccc5cc(C6CC6)cc(F)c5c4=O)c3CO)nc(N)nc2[nH]1` [Example 7, 2-[3-(2-amino-6-methyl-7H-pyrrolo[2,3-d]pyrimidin-4-yl)-2-(hydroxymethyl)phenyl]-6-cyclopropyl-8-fluoroisoquinolin-1(2H)-one], the IC50 at dephosphorylated BTK is less than 10 nM.

`Nc1nc(-c2cccc(-n3ccc4cc(C5CC5)cc(F)c4c3=O)c2CO)c2cc[nH]c2n1` [Example 6, 2-[3-(2-amino-7H-pyrrolo[2,3-d]pyrimidin-4-yl)-2-(hydroxymethyl)phenyl]-6-cyclopropyl-8-fluoroisoquinolin-1(2H)-one]: on dephosphorylated BTK, the IC50 was less than 10 nM. Turning to `Nc1nc(-c2cccc(-n3ccc4cc(C5CC5)cc(F)c4c3=O)c2CO)c2cc(-c3cccc(C(F)(F)F)c3)[nH]c2n1` [Example 40, 2-(3-{2-amino-6-[3-(trifluoromethyl)phenyl]-7H-pyrrolo[2,3-d]pyrimidin-4-yl}-2-(hydroxymethyl)phenyl)-6-cyclopropyl-8-fluoroisoquinolin-1(2H)-one], the IC50 on dephosphorylated BTK is less than 10 nM; in the assay on OCI-Ly10 cells, 1330 nM. Take `C=CC(=O)NCc1cc2c(-c3cccc(-n4ccc5cc(C6CC6)cc(F)c5c4=O)c3CO)nc(N)nc2[nH]1` [Example 30, N-({2-amino-4-[3-(6-cyclopropyl-8-fluoro-1-oxoisoquinolin-2(1H)-yl)-2-(hydroxymethyl)phenyl]-7H-pyrrolo[2,3-d]pyrimidin-6-yl}methyl)acrylamide]: on dephosphorylated BTK, the IC50 is 10 to 100 nM. As for `Nc1nc(-c2cccc(-n3ccc4cc(C5CC5)cc(F)c4c3=O)c2CO)c2cc(-c3ccc(C(F)(F)F)cc3)[nH]c2n1` [Example 37, 2-(3-{2-amino-6-[4-(trifluoromethyl)phenyl]-7H-pyrrolo[2,3-d]pyrimidin-4-yl}-2-(hydroxymethyl)phenyl)-6-cyclopropyl-8-fluoroisoquinolin-1(2H)-one], the values for the IC50 on dephosphorylated BTK and with OCI-Ly10 cells were less than 10 nM and 499 nM, respectively.

As to `Nc1nc(-c2cccc(-n3ccc4cc(C5CC5)cc(F)c4c3=O)c2CO)c2cc(-c3ccc(F)cc3F)[nH]c2n1` [Example 35, 2-{3-[2-amino-6-(2,4-difluorophenyl)-7H-pyrrolo[2,3-d]pyrimidin-4-yl]-2-(hydroxymethyl)phenyl}-6-cyclopropyl-8-fluoroisoquinolin-1(2H)-one], the IC50 at dephosphorylated BTK was less than 10 nM; in the assay on OCI-Ly10 cells, 428 nM. As for `Nc1nc(-c2cccc(-n3ccc4cc(C5CC5)cc(F)c4c3=O)c2CO)c2c(-c3ccccc3)c[nH]c2n1` [Example 28, 2-[3-(2-amino-5-phenyl-7H-pyrrolo[2,3-d]pyrimidin-4-yl)-2-(hydroxymethyl)phenyl]-6-cyclopropyl-8-fluoroisoquinolin-1(2H)-one], the IC50 on dephosphorylated BTK was less than 10 nM. For the molecule `Nc1nc(-c2cccc(-n3ccc4cc(C5CC5)cc(F)c4c3=O)c2CO)c2nc[nH]c2n1` [Example 4, 2-[3-(2-amino-9H-purin-6-yl)-2-(hydroxymethyl)phenyl]-6-cyclopropyl-8-fluoroisoquinolin-1(2H)-one], at dephosphorylated BTK, the IC50 is less than 10 nM. On to `Nc1nc(-c2cccc(-n3ccc4cc(C5CC5)cc(F)c4c3=O)c2CO)c2cc(C3CC3)[nH]c2n1` [Example 9, 2-[3-(2-amino-6-cyclopropyl-7H-pyrrolo[2,3-d]pyrimidin-4-yl)-2-(hydroxymethyl)phenyl]-6-cyclopropyl-8-fluoroisoquinolin-1(2H)-one], for which, at dephosphorylated BTK, the IC50 is less than 10 nM. On the same count and under the same terms, then `COc1ccccc1-c1n[nH]c2nc(N)nc(-c3cccc(-n4ccc5cc(C6CC6)cc(F)c5c4=O)c3CO)c12` [Example 21, 2-{3-[6-amino-3-(2-methoxyphenyl)-1H-pyrazolo[3,4-d]pyrimidin-4-yl]-2-(hydroxymethyl)phenyl}-6-cyclopropyl-8-fluoroisoquinolin-1(2H)-one], with less than 10 nM; and `Nc1nc(-c2cccc(-n3ccc4cc(C5CC5)cc(F)c4c3=O)c2CO)c2nc(C3CC3)[nH]c2n1` [Example 12, 2-[3-(2-amino-8-cyclopropyl-9H-purin-6-yl)-2-(hydroxymethyl)phenyl]-6-cyclopropyl-8-fluoroisoquinolin-1(2H)-one], with less than 10 nM.
